According to article PMC12124671, “Drug repurposing reveals posaconazole as a CYP11A1 inhibitor enhancing anti-tumor immunity” (iScience, 2025):
pIC50: −log10 of the molar value.

Key:
CYP11A1 [1] = target: T1, CYP11A1 (Mus musculus, UniProt Q9QZ82); assay: pregnenolone ELISA in murine Th2 cells (endogenous Cyp11a1), reference inhibitor, […] h dose response; assay type: cell-based
T1 sequence (Q9QZ82 37-526): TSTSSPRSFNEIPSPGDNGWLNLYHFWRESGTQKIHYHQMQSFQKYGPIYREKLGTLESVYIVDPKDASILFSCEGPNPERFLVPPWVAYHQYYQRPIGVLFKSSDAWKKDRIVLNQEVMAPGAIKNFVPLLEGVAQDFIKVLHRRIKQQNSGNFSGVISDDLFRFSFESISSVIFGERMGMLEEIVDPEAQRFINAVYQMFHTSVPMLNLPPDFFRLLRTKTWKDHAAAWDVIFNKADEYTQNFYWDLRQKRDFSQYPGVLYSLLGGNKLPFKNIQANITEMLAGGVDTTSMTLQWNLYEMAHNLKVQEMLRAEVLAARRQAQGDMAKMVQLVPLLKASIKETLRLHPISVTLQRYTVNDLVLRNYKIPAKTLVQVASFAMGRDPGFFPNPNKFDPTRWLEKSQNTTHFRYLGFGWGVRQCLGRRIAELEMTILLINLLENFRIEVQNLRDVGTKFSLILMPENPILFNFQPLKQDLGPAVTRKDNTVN

CYP11A1 [2] = target: T1, CYP11A1; assay: pregnenolone ELISA in murine Th2 cells (endogenous Cyp11a1), dose response; assay type: cell-based

Structure (SMILES)	pIC50 (CYP11A1 [1])	pIC50 (CYP11A1 [2])
CCC1(c2ccc(N)cc2)CCC(=O)NC1=O (centres unmarked) [aminoglutethimide]	5.97	–
CC[C@@H]([C@H](C)O)n1ncn(-c2ccc(N3CCN(c4ccc(OC[C@@H]5CO[C@@](Cn6cncn6)(c6ccc(F)cc6F)C5)cc4)CC3)cc2)c1=O [posaconazole]	–	6.66
